Measured values from patent US20090220435A1, “TIGHT JUNCTION MODULATING PEPTIDE COMPONENTS FOR ENHANCING MUCOSAL DELIVERY OF THERAPEUTIC AGENTS” (priority 2005, published 2009).
Read-outs that look alike come from different tables or passages of the source.

Assays:
[1] = tested on: EpiAirway™ human-derived tracheal/bronchial epithelial cells; test: Transepithelial electrical resistance (TER) across EpiAirway epithelial cell layer; type: cell-based
[2] = tested on: EpiAirway™ human-derived tracheal/bronchial epithelial cells; test: TER recovery after peptide treatment; type: cell-based; conditions: among all TJMPs tested
[3] = tested on: EpiAirway™ human-derived tracheal/bronchial epithelial cells; test: Cytotoxicity (LDH assay); type: cell-based; conditions: for LDH15: 15 minute treatment at the peptide's optimal concentration; for LDH60: 60 minute treatment at the peptide's optimal concentration
Protocol: The amount of cell death was assayed by measuring the loss of lactate dehydrogenase (LDH) from the cells using a CytoTox 96 Cytoxicity Assay Kit (Promega Corp., Madison, Wis.). Fifty microliters of sample was loaded into a 96-well assay plates. Fresh, cell-free culture medium was used as a blank. 50 μl of substrate solution was added to each well and the plates incubated for 30 minutes at room temperature in the dark. Following incubation, 50 μl of stop solution was added to each well and the plates read on an optical density plate reader at 490 nm.
The amount of cell death will be assayed by measuring the loss of lactate dehydrogenase (LDH) from the cells using a CytoTox 96 Cytotoxicity Assay Kit (Promega Corp., Madison, Wis.). Fifty microliters of sample will be loaded into a 96-well assay plates. Fresh, cell-free culture medium will be used as a blank. Fifty microliters of substrate solution will be added to each well and the plates incubated for 30 minutes at room temperature in the dark. Following incubation, 50 μl of stop solution will be added to each well and the plates read on an optical density plate reader at 490 nm. The measurement of LDH release into the basolateral media indicates relative cytotoxicity of the samples. One hundred percent lysis of control inserts with 0.3% Octylphenolpoly(ethyleneglycolether)×(TritonX-100) allows LDH values to be expressed as percentage of total lysis.
In some embodiments, The amount of cell death was assayed by measuring the release of lactate dehydrogenase (LDH) from the cells into the apical medium using a CytoTox 96 Cytotoxicity Assay Kit (Promega Corp., Madison, Wis.). One percent Octylphenolpoly (ethyleneglycolether)×(Triton X-100™) diluted in phosphate buffered saline (PBS) causes 100% lysis in cultured cells and served herein as a positive control for the LDH assay. Following the one hour incubation period with a test formulation (refer to Table 24 of Example 25 for details of test formulations), the total liquid volume of each insert was brought to a final volume of 200 μl with culture medium. The apical medium was then mixed by pipetting four times with a multichannel pipette set to a 100 μl volume. After mixing, a 100 μl sample from the apical side of each insert was transferred to a new 96-well plate. The apical media samples were sealed with a plate sealer and stored at room temperature for same day analysis or stored overnight at 4° C. for analysis the next day. To measure LDH levels, 5 μl of the 100 μl apical media sample was diluted in 45 μl DPBS in a new 96-well plate. Fresh, cell-free culture medium will be used as a blank. Fifty microliters of substrate solution was added to each well and incubated for 30 minutes at room temperature away from direct light. Following the 30 minute incubation, 50 μl of stop solution was added to each well. Optical density (OD) was measured at 490 nm with a uQuant absorbance plate reader from Biotek Instruments. The measurement of LDH release into the apical media indicates relative cytotoxicity of the samples. Percent cytotoxicity for each test formulation was calculated by subtracting the measured absorbance of the PBS control (basal level of LDH release) from the measured absorbance of the individual test formulation and then dividing that value by the measured absorbance for the 1% Triton X-100™ positive control, multiplied by 100.
An LDH assay was used to assess the cytotoxicity of the treatments. The LDH level was determined by CytoTox96 Non-Radioactive Cytotoxic Assay (Promega, Madison, Wis.) following the manufacturer's protocol. For basal-lateral LDH levels, triplicates of 50 ul of the basal medium were used to determine the LDH level. For apical LDH level, 150 ul of the diluted apical sample was removed by adding 150 ul of Epi-CM to the apical chamber, the medium was mixed by pipeting up and down, and 150 ul medium was removed and diluted 2× (for a final 8-fold dilution) for assay in triplicates of 50 ul.

[4] = Drug permeation (Papp) in the in vitro epithelial tissue model; conditions: human, pH 5, Papp
Excerpt: (§1) A. A “kit” of 24 EpiAirway™ units can routinely be employed for evaluating five different formulations, each of which is applied to quadruplicate wells. Each well is employed for determination of permeation kinetics (4 time points), transepithelial electrical resistance (TER). An additional set of wells is employed as controls, which are sham treated during determination of permeation kinetics, but are otherwise handled identically to the test sample-containing units for determinations of transepithelial resistance and viability.
(§2) B. In all experiments, the mucosal delivery formulation to be studied is applied to the apical surface of each unit in a volume of 100 μL, which is sufficient to cover the entire apical surface. An appropriate volume of the test formulation at the concentration applied to the apical surface (no more than 100 μL is generally needed) is set aside for subsequent determination of concentration of the active material by ELISA or other designated assay.
(§3) D. In order to minimize potential sources of error and avoid any formation of concentration gradients, the units are transferred from one 0.9 mL-containing well to another at each time point in the study. These transfers are made at the following time points, based on a zero time at which the 100 μL volume of test material was applied to the apical surface: 15 minutes, 30 minutes, 60 minutes, and 120 minutes.
(§4) F. At the completion of each time point, the medium is removed from the well from which each unit was transferred, and aliquotted into two tubes (one tube receives 700 μL and the other 200 μL) for determination of the concentration of permeated test material and, in the event that the test material is cytotoxic, for release of the cytosolic enzyme, lactate dehydrogenase, from the epithelium. These samples are kept in the refrigerator if the assays are to be conducted within 24 hours, or the samples are subaliquotted and kept frozen at −80° C. until thawed once for assays. Repeated freeze-thaw cycles are to be avoided.
(§5) EIA kit (p/n S-1178(EIAH6101) was purchased from Peninsula Laboratories Inc. (Division of BACHEM, San Carlos, Calif., 800-922-1516). 17×120 mm polypropylene conical tubes (p/n 352097, Falcon, Franklin Lakes, N.J.) were used for all sample preparations. Eight standards were used for PTH quantitation. The rest of the assay procedure was the same as the kit inserts.
(§6) The instant study was designed to evaluate the effect of PN159 itself or in combination with additional permeation enhancers on PTH permeation. The PN159 concentrations evaluated are 25, 50, and 100 μM. The additional permeation enhancers are 45 mg/ml M-β-CD, 1 mg/ml DDPC, and 1 mg/ml EDTA. Sorbitol was used as a tonicifier (146-190 mM) to adjust the osmolarity of formulations to 220 mOsm/kg. The formulation pH was fixed at 4.5. PTH was chosen as a model peptide in this example. 2 mg/ml PTH was combined with PN159 with or without additional permeation enhancers. The combination was tested using an in vitro epithelial tissue model to monitor PTH permeation, transepithelial electrical resistance (TER), and the cytotoxicity of the formulation by LDH assay.
(§7) The concentrations of MC-4RA in the basolateral media was analyzed by the RP-HPLC using a C18 RP chromatography with a flow rate of 1 mL/minute and a column temperature of 25° C. • Solvent A: 0.1% TFA in water; Solvent B: 0.1% TFA in ACN • Injection Volume: 50 μL • Detection: 220 nm • RUN TIME: 15 MIN
(§8) Galantamine concentration in the formulation and in the basolateral media (permeation samples) was determined using an isocratic LC (Waters Alliance) method with UV detection. • Column: Waters Symmetry Shield, C18, 5 um, 25×0.46 cm • Mobile phase: 5% ACN in 50 mM ammonium formate, pH 3.0 • Flow rate: 1 ml/min • Column temperature: 30° C. • Calibration curve: 0-400 μg/ml Galantamine HBr • Detection: UV at 285 nm

[5] = tested on: in vitro epithelial tissue model (EpiAirway™); test: as above
Excerpt: as §1, §2, §3, §4, §5, §6, §7, §8

[6] = [PN159] 0 μM, galantamine 40 mg/mL pH 5.0, calcitonin 1 mg/mL pH 3.5, PTH1-34 1 mg/mL pH 4.5, PYY3-36 1 mg/mL pH 5.0
[7] = [PN159] 25 μM, galantamine 40 mg/mL pH 5.0, calcitonin 1 mg/mL pH 3.5, PTH1-34 1 mg/mL pH 4.5, PYY3-36 1 mg/mL pH 7.0
[8] = [PN159] 100 μM, galantamine 40 mg/mL pH 5.0, calcitonin 1 mg/mL pH 3.5, PTH1-34 1 mg/mL pH 4.5, PYY3-36 1 mg/mL pH 7.0

## H-RRRQRRKRGGDIMGEWGNEIFGAIAGFLG-NH2 [PN250]
[1]; 10 μM peptide
  TER reduction: 3%
[1]; 25 μM peptide
  TER reduction: 17%
[1]; 100 μM peptide
  TER reduction: 58%
[1]; 250 μM peptide
  TER reduction: 79%
[1]; 500 μM peptide
  TER reduction: 84%
[2]
  TER recovery time: fastest recovery time
[3]
  LDH15: 0.0016
  LDH60: 0.031

## COc1ccc2c3c1O[C@H]1C[C@@H](O)C=C[C@@]31CCN(C)C2 [Galantamine, galantamine]
[4]; [6]
  Papp A→B at 120 min, 40 mg/mL: ~2.1 ×10⁻⁶ cm/s
[4]; [7]
  Papp A→B at 120 min, 40 mg/mL: 5.1 ×10⁻⁶ cm/s
[4]; [PN159] 50 μM, galantamine 40 mg/mL pH 5.0, calcitonin 1 mg/mL pH 3.5, PTH1-34 1 mg/mL pH 4.5
  Papp A→B at 120 min, 40 mg/mL: 6.2 ×10⁻⁶ cm/s
[4]; [8]
  Papp A→B at 120 min, 40 mg/mL: 7.2 ×10⁻⁶ cm/s
[5]; PN159 25-100 vs drug alone
  fold increase in Papp in the presence of PN159: 2.5-3.5 fold
[5]; [6]
  Papp: 2.1 ×10⁻⁶ cm/s

## H-LLETLLKPFQCRICMRNFSTRQARRNHRRRHRR-NH2 (cysteine pairing not given here) [PN202]
[1]; 10 μM peptide
  TER reduction: 3%
[1]; 50 μM peptide
  TER reduction: 57%
[1]; 100 μM peptide
  TER reduction: 95%
[1]; 500 μM peptide
  TER reduction: 95%
[2]
  TER recovery time: fastest recovery time
[3]
  LDH15: 0.0011
  LDH60: 0.02

## CC[C@H](C)[C@H](NC(=O)[C@H](CCC(=O)O)NC(=O)[C@H](CO)NC(=O)[C@@H](NC(=O)[C@@H](N)CO)C(C)C)C(=O)N[C@@H](CCC(N)=O)C(=O)N[C@@H](CC(C)C)C(=O)N[C@@H](CCSC)C(=O)N[C@@H](Cc1cnc[nH]1)C(=O)N[C@@H](CC(N)=O)C(=O)N[C@@H](CC(C)C)C(=O)NCC(=O)N[C@@H](CCCCN)C(=O)N[C@@H](Cc1cnc[nH]1)C(=O)N[C@@H](CC(C)C)C(=O)N[C@@H](CC(N)=O)C(=O)N[C@@H](CO)C(=O)N[C@@H](CCSC)C(=O)N[C@@H](CCC(=O)O)C(=O)N[C@@H](CCCN=C(N)N)C(=O)N[C@H](C(=O)N[C@@H](CCC(=O)O)C(=O)N[C@@H](Cc1c[nH]c2ccccc12)C(=O)N[C@@H](CC(C)C)C(=O)N[C@@H](CCCN=C(N)N)C(=O)N[C@@H](CCCCN)C(=O)N[C@@H](CCCCN)C(=O)N[C@@H](CC(C)C)C(=O)N[C@@H](CCC(N)=O)C(=O)N[C@@H](CC(=O)O)C(=O)N[C@H](C(=O)N[C@@H](Cc1cnc[nH]1)C(=O)N[C@@H](CC(N)=O)C(=O)N[C@@H](Cc1ccccc1)C(=O)O)C(C)C)C(C)C [PTH1-34, human parathyroid hormone 1-34]
[5]
  fold increase in Papp in the presence of PN159: 3-5 fold
[5]; [6]
  Papp: 0.11 ×10⁻⁶ cm/s
[5]; [7]
  Papp: 0.34 ×10⁻⁶ cm/s
[5]; [8]
  Papp: 0.43 ×10⁻⁶ cm/s

## CC[C@H](C)[C@H](NC(=O)[C@H](CCCCN)NC(=O)[C@H](CCCCN)NC(=O)[C@H](C)NC(=O)[C@H](CC(C)C)NC(=O)[C@H](C)NC(=O)[C@H](C)NC(=O)[C@H](CC(C)C)NC(=O)[C@H](C)NC(=O)[C@H](CCCCN)NC(=O)[C@H](CC(C)C)NC(=O)[C@H](CC(N)=O)NC(=O)[C@@H](NC(=O)[C@H](CCCCN)NC(=O)CNC(=O)[C@H](CC(C)C)NC(=O)[C@H](CC(C)C)NC(=O)[C@H](Cc1ccc(O)cc1)NC(=O)CNC(=O)[C@H](C)NC(=O)[C@H](CO)NC(=O)[C@H](CC(N)=O)NC(=O)[C@H](CC(C)C)NC(=O)[C@@H](NC(=O)[C@H](Cc1c[nH]c2ccccc12)NC(=O)CN)[C@@H](C)O)[C@@H](C)CC)C(=O)N[C@@H](CC(C)C)C(N)=O [PN161]
[1]; 2.5 μM peptide
  TER reduction: 11%
[1]; 10 μM peptide
  TER reduction: 43%
[1]; 25 μM peptide
  TER reduction: 73%
[1]; 100 μM peptide
  TER reduction: 84%
[2]
  TER recovery time: fastest recovery time
[3]
  LDH15: 0.0017
  LDH60: 0.01
